Source: ChEMBL document CHEMBL1146811, “Specific inhibition effects of N-pentafluorobenzyl-1-deoxynojirimycin on human CD4+ T cells” (Bioorg Med Chem Lett, 2004)

Experiment: Effect on proliferation of human peripheral blood mononuclear cells (PMBC) at 72 hr using MTT assay
Assay type: functional

| SMILES | IC50 [µM] |
| --- | --- |
| OCC1C(O)C(O)C(O)CN1Cc1c(F)c(F)c(F)c(F)c1F (configuration not stated) | 20.2 |
| OC[C@H]1NC[C@H](O)[C@@H](O)[C@@H]1O [DUVOGLUSTAT] | 25.6 |
